According to patent US20130190407A1, “CALCIUM RECEPTOR-ACTIVE MOLECULES” (NPS Pharmaceuticals, Inc., priority 1991, published 2013):

How the values were obtained:
[1] = test system: healthy, post-menopausal person; assay: Placebo-controlled single-dose, dose-escalation study in a human; format: in vivo
Description: A range of single oral doses was used to assess safety, tolerance, and changes in primary hyperparathyroidism markers (e.g., plasma concentrations of parathyroid hormone and ionized serum calcium) and of serum calcitonin.

thyroidectomized animals = assay: Hypocalcemic response in thyroidectomized rats; format: in vivo, rat; details: 3 to 100 mg/kg p.o.
Description: In subsequent studies, rats received a thyroidectomy (parathyroid glands intact). This surgical procedure effectively removed the C-cells secreting calcitonin and therefore enabled the relative contributions of PTH and calcitonin to the hypocalcemic effect of this compound to be determined. […] The only difference was that the rate of onset of the hypocalcemic response was somewhat delayed in thyroidectomized animals. […] Stimulatory effects of this compound on calcitonin secretion increases the rate of onset, but not the extent, of hypocalcemia.

HuPCaR 5.2 = molecular target: T1, HuPCaR 5.2 (Homo sapiens, UniProt P41180, E1011Q/Q926R); assay: [Ca2+]i (fura-2) in HEK293 cells transfected with HuPCaR 5.2; format: cell-based
T1 construct: appear to be full-length clones corresponding to the 5 Kb mRNA; expressed in transfected cells; host or cells: HEK293 cells, hygromycin-selected pool, Cep4B vector with the HuPCaR 5.2 insert
T1 sequence (P41180 20-1088 isoform P41180-2 Q936R/E1021Q): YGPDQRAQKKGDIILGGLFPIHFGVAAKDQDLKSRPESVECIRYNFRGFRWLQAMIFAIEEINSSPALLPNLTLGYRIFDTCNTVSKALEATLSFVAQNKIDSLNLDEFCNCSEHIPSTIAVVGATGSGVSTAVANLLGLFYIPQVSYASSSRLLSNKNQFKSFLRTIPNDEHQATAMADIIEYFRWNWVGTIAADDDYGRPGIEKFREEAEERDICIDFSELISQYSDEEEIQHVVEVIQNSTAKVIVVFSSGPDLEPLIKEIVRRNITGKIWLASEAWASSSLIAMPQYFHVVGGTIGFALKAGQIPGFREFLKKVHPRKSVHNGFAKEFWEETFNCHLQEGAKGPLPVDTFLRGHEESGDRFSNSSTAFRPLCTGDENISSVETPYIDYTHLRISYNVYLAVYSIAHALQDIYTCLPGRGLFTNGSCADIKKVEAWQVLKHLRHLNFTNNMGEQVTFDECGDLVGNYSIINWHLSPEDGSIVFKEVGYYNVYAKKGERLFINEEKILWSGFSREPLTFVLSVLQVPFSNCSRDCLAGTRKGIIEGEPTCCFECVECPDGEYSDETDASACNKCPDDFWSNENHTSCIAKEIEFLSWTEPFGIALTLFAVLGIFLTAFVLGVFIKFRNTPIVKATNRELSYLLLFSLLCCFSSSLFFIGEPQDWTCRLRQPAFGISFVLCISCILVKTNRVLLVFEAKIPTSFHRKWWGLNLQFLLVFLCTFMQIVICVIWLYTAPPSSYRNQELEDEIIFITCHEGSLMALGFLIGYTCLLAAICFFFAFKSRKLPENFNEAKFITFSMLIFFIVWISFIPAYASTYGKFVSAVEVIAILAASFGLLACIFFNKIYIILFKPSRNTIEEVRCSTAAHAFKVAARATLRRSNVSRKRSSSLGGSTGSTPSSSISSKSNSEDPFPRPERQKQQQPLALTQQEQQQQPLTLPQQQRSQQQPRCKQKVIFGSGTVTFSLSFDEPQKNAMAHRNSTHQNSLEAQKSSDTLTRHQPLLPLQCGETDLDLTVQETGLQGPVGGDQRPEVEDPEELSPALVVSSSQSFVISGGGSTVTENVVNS
Protocol: Cells obtained from the pool of hygromycin selected HEK293 cells transfected with Cep4B containing the HuPCaR 5.2 insert were plated on collagen coated Aklar squares which had been placed into individual wells of 12-well tissue culture plates. Two to six days later, medium was removed and the cells washed with balanced salt solution and 1 ml of buffer containing 1 μM fura2-AM, 1 mM CaCl2 and 0.1% BSA and 1 mM CaCl2. Measurements of fluorescence in response to calcium receptor agonists were performed at 37° C. in a spectrofluorimeter using excitation and emission wavelengths of 340 and 510 nm, respectively. For signal calibration, Fmax was determined after addition of ionomycin (40 μM) and the apparent Fmin was determined by addition of 0.3 M EGTA, 2.5 M Tris-HCl; pH 10.

Compound	Serum PTH ([1]; 20 mg single oral dose, 1 h)	Serum PTH ([1]; 240 mg single oral dose, 0.5 h)	serum ionized calcium concentration ([1]; at higher doses)	serum calcitonin ([1]; at the doses studied)	plasma PTH concentration ([1]; single oral doses)	hypocalcemic response (thyroidectomized animals)	intracellular calcium (HuPCaR 5.2)
COc1cccc([C@@H](C)NCCCc2ccccc2Cl)c1 [NPS R-568, (R)-(+)-N-[3-(2-chlorophenyl)propyl]-α-methyl-3-methoxybenzylamine]	18 pg/mL	18 pg/mL	decrease in serum ionized calcium concentration	no apparent change in serum calcitonin	transient dose-dependent decrease in plasma PTH concentration	hypocalcemic response equal in magnitude to that produced in sham-operated animals	–
COc1cccc([C@@H](C)NCCCc2ccccc2)c1 (single isomer, unassigned) [NPS R-467]	–	–	–	–	–	–	Robust increases in intracellular calcium
